From PMC4457528, “Identification of Novel Small Molecule Inhibitors of Oncogenic RET Kinase” (PLoS ONE, 2015)
Where two headings read alike, the source gives them in different places.

Assays:
Test in all cases: KinomeScan kinase panel, single concentration 10 µM
Assay type in all cases: binding
KinomeScan kinase panel [1] = molecular target: T1, KinomeScan kinase panel (Homo sapiens, UniProt O14965); conditions: AURKA, 10 µM; read-out: score (%)
T1 construct: purchased DiscoveRx (KinomeScan)
T1 sequence (O14965 1-403): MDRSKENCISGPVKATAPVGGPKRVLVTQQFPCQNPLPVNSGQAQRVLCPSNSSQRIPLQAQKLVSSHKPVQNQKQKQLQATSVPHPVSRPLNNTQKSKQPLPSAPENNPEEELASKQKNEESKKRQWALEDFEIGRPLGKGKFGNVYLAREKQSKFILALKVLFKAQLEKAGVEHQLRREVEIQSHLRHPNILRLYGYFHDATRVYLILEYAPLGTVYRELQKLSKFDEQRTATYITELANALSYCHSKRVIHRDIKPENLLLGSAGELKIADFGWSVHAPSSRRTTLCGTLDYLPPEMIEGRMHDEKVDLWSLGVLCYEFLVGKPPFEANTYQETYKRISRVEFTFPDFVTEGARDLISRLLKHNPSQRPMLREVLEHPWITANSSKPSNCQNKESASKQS

KinomeScan kinase panel [2] = molecular target: T2, KinomeScan kinase panel (Homo sapiens, UniProt P00519, T315I); conditions: 10 µM, read-out: score (%)
T2 construct: purchased DiscoveRx (KinomeScan)

KinomeScan kinase panel [3] = molecular target: T3, KinomeScan kinase panel (Homo sapiens, UniProt P07332); conditions: FES, 10 µM; read-out: score (%)
T3 construct: purchased DiscoveRx (KinomeScan)
T3 sequence (P07332 whole entry): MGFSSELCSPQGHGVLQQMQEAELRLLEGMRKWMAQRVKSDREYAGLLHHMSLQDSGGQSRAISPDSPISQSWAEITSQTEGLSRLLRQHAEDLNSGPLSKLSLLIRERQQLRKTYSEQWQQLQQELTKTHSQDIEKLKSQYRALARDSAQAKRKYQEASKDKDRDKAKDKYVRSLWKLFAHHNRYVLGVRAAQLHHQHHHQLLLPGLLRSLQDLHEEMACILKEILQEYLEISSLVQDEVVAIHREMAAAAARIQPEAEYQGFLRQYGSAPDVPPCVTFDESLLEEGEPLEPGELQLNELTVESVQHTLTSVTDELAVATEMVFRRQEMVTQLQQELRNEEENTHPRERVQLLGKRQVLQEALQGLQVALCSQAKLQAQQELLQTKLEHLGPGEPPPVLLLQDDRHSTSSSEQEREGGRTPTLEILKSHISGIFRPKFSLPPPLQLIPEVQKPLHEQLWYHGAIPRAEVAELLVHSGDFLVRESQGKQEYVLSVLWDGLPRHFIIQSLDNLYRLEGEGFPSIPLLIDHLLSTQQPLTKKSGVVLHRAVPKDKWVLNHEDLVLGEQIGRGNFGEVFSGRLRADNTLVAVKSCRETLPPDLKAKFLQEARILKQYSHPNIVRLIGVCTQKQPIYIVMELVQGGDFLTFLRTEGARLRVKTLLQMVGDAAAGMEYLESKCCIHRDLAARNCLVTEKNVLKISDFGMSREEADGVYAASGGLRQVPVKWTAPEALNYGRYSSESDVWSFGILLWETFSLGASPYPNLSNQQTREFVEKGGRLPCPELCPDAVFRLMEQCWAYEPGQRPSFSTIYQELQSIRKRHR

KinomeScan kinase panel [4] = molecular target: T4, KinomeScan kinase panel (Homo sapiens, UniProt P10721, D816V); conditions: KIT(D816V), 10 µM; read-out: score (%)
T4 construct: purchased DiscoveRx (KinomeScan)
T4 sequence (P10721 26-976 D816V): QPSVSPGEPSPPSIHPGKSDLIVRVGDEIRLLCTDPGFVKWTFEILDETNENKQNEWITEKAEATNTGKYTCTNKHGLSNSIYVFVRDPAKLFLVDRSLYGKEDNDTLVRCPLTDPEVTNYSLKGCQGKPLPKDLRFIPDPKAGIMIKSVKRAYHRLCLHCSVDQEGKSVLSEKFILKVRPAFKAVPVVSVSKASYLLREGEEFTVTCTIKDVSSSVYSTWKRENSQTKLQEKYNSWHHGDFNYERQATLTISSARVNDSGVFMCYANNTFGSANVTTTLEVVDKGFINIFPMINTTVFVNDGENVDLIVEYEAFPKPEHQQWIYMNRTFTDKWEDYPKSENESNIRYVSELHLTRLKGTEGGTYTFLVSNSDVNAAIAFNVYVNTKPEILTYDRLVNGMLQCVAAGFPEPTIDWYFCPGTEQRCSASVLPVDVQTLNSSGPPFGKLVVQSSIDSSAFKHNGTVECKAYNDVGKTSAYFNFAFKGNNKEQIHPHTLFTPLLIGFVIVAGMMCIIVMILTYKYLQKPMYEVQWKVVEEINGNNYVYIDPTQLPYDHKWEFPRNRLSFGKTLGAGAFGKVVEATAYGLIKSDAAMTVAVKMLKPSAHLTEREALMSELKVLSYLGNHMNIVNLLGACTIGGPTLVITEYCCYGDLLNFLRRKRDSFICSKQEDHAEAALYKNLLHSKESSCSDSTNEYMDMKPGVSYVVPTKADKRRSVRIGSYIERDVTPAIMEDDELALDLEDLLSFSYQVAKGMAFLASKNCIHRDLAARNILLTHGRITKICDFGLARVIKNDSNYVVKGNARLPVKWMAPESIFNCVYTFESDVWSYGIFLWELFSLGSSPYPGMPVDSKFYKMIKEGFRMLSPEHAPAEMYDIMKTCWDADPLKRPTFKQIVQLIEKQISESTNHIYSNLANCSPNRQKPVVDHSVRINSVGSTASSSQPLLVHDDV

KinomeScan kinase panel [5] = molecular target: T5, KinomeScan kinase panel (Homo sapiens, UniProt P15056); conditions: BRAF, 10 µM; read-out: score (%)
T5 construct: purchased DiscoveRx (KinomeScan)

KinomeScan kinase panel [6] = molecular target: T6, KinomeScan kinase panel (Homo sapiens, UniProt P43405); conditions: 10 µM
T6 construct: purchased DiscoveRx (KinomeScan)

KinomeScan kinase panel [7] = molecular target: T7, KinomeScan kinase panel (Homo sapiens, UniProt P53350); conditions: PLK1, 10 µM; read-out: score (%)
T7 construct: purchased DiscoveRx (KinomeScan)
T7 sequence (P53350 whole entry): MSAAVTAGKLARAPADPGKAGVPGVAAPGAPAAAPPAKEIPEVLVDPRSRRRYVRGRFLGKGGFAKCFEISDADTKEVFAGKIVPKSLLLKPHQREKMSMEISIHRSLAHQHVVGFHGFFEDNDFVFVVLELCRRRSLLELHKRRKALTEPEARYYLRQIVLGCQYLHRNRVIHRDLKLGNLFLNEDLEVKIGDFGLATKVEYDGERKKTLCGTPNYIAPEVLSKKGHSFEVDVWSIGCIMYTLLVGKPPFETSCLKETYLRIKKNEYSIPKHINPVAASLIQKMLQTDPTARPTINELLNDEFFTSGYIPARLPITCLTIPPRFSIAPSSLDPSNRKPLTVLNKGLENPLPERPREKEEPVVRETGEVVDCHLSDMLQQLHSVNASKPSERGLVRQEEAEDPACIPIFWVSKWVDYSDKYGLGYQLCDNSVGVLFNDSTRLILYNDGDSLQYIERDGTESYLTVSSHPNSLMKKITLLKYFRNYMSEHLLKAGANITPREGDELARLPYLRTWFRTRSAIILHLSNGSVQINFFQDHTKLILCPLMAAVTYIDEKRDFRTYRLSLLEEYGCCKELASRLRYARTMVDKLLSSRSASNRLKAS

KinomeScan kinase panel [8] = molecular target: T8, KinomeScan kinase panel (Homo sapiens, UniProt P78362); conditions: read-out: score (%)
T8 construct: purchased DiscoveRx (KinomeScan)

KinomeScan kinase panel [9] = molecular target: T9, KinomeScan kinase panel (Homo sapiens, UniProt Q13043); conditions: MST1, 10 µM
T9 construct: purchased DiscoveRx (KinomeScan)
T9 sequence (Q13043 1-487): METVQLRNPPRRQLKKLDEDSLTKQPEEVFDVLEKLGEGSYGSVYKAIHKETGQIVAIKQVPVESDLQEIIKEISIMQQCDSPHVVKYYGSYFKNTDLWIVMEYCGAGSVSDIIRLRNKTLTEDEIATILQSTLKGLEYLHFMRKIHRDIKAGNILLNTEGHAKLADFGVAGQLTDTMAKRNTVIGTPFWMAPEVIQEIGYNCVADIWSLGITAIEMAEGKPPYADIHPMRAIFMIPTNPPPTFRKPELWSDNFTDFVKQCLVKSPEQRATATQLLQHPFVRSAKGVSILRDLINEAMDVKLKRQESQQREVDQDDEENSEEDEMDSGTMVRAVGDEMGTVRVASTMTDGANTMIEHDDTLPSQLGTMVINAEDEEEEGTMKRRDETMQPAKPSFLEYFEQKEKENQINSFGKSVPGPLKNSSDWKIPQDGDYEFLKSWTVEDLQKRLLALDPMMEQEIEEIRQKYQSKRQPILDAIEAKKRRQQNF

KinomeScan kinase panel [10] = molecular target: T10, KinomeScan kinase panel (Homo sapiens, UniProt Q13976); conditions: read-out: score (%)
T10 construct: purchased DiscoveRx (KinomeScan)
T10 sequence (Q13976 1-671): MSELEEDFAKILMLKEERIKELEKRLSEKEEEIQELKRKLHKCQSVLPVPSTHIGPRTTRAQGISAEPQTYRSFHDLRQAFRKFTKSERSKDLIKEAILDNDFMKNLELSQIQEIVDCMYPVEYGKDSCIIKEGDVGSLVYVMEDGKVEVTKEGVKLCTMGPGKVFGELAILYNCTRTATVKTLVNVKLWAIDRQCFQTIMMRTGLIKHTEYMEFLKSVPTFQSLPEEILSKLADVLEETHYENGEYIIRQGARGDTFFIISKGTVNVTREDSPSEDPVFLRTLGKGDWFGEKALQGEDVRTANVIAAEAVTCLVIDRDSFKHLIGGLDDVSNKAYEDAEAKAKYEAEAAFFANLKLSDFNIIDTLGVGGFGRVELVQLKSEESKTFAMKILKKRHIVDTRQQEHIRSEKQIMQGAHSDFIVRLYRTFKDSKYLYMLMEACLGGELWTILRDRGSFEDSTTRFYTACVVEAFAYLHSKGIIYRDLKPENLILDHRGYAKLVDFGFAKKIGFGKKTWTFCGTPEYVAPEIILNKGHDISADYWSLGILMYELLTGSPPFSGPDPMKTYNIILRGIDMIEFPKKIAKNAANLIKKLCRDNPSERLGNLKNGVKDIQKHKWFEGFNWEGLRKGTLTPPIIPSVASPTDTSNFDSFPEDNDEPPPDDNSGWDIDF

KinomeScan kinase panel [11] = molecular target: T11, KinomeScan kinase panel (Homo sapiens, UniProt Q15303); conditions: ERBB4, 10 µM; read-out: score (%)
T11 construct: purchased DiscoveRx (KinomeScan)
T11 sequence (Q15303 26-1308): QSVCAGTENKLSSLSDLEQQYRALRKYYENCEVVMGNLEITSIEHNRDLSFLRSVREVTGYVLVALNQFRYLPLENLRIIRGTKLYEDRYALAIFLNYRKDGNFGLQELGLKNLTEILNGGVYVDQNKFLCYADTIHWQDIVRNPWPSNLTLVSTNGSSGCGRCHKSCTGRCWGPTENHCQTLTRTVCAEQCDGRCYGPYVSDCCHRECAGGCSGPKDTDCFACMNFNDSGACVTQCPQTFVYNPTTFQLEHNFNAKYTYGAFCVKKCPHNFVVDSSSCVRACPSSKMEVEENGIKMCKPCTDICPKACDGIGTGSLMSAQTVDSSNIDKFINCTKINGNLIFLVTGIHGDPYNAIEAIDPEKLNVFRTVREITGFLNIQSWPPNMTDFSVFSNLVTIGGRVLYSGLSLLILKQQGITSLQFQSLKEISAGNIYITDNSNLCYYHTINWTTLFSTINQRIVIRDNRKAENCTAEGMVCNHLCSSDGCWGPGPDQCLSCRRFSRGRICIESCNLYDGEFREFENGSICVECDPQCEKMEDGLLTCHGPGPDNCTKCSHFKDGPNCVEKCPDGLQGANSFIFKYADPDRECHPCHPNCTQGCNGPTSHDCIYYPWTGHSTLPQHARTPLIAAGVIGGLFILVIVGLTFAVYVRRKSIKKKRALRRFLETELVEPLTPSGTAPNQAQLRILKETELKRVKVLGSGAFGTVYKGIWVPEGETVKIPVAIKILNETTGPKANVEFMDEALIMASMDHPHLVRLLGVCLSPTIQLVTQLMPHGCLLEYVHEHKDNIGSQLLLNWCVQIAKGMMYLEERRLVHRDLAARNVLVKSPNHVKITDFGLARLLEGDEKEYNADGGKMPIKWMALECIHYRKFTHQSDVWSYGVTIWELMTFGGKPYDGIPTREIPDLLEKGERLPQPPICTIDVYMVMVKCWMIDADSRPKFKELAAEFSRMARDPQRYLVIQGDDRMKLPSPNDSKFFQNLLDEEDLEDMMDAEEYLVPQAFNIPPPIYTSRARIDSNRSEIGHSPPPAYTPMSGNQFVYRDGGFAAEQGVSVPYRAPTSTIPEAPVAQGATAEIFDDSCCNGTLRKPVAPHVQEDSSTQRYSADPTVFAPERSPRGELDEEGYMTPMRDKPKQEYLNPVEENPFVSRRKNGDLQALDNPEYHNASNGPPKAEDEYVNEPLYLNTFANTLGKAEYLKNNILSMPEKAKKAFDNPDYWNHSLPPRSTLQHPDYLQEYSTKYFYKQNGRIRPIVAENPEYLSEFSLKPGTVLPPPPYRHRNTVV

KinomeScan kinase panel [12] = molecular target: T12, KinomeScan kinase panel (Homo sapiens, UniProt Q9H3Y6); conditions: 10 µM, read-out: score (%)
T12 construct: purchased DiscoveRx (KinomeScan)
T12 sequence (Q9H3Y6 whole entry): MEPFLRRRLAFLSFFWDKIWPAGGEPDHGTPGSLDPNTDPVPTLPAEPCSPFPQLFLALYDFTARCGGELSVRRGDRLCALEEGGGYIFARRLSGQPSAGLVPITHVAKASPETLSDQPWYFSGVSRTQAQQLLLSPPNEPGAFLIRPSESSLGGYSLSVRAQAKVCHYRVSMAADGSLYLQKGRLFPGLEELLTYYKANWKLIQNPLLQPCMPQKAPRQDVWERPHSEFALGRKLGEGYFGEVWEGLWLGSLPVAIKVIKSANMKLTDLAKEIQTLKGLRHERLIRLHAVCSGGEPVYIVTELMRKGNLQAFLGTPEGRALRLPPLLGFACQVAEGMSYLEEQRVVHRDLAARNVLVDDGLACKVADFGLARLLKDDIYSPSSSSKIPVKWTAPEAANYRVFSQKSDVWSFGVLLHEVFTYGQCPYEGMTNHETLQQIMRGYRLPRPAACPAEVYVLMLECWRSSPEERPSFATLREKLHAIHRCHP

KinomeScan kinase panel [13] = molecular target: T13, KinomeScan kinase panel (Homo sapiens, UniProt Q9H4B4); conditions: read-out: score (%)
T13 construct: purchased DiscoveRx (KinomeScan)
T13 sequence (Q9H4B4 whole entry): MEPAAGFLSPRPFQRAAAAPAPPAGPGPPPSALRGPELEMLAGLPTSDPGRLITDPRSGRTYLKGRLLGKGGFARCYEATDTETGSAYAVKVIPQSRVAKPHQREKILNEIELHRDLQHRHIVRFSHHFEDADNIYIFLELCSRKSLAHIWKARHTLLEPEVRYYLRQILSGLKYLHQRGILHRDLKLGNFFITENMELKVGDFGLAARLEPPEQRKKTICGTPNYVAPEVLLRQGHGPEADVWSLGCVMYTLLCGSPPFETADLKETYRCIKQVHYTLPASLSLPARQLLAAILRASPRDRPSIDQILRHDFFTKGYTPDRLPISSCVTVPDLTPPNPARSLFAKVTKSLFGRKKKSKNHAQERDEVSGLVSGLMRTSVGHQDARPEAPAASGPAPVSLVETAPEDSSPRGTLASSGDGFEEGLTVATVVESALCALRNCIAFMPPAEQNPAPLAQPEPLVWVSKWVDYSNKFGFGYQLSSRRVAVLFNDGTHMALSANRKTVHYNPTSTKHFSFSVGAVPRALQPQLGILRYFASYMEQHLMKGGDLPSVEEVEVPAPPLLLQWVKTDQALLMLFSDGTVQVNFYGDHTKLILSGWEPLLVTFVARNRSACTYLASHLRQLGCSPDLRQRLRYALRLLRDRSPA

score (%) (KinomeScan kinase panel [6]; SYK)	remaining binding at 10 µM (KinomeScan kinase panel [8]; SRPK2, 10 µM) [%]	remaining binding at 10 µM (KinomeScan kinase panel [12]; SRMS) [%]	SMILES	remaining binding at 10 µM (KinomeScan kinase panel [1]) [%]	remaining binding at 10 µM (KinomeScan kinase panel [2]; ABL1(T315I)) [%]	remaining binding at 10 µM (KinomeScan kinase panel [3]) [%]	remaining binding at 10 µM (KinomeScan kinase panel [4]) [%]	remaining binding at 10 µM (KinomeScan kinase panel [5]) [%]	score (%) (KinomeScan kinase panel [6]; kinase SYK)	remaining binding at 10 µM (KinomeScan kinase panel [7]) [%]	remaining binding at 10 µM (KinomeScan kinase panel [8]; kinase SRPK2, 10 µM) [%]	score (%) (KinomeScan kinase panel [9])	remaining binding at 10 µM (KinomeScan kinase panel [10]; PRKG1, 10 µM) [%]	remaining binding at 10 µM (KinomeScan kinase panel [11]) [%]	remaining binding at 10 µM (KinomeScan kinase panel [12]; kinase SRMS) [%]	remaining binding at 10 µM (KinomeScan kinase panel [13]; PLK3, 10 µM) [%]	remaining binding at 10 µM (KinomeScan kinase panel [2]; ABL1(T315I)-nonphosphorylated) [%]	remaining binding at 10 µM (KinomeScan kinase panel [2]; ABL1(T315I)-phosphorylated) [%]	remaining binding at 10 µM (KinomeScan kinase panel [10]; kinase PRKG1, 10 µM) [%]	remaining binding at 10 µM (KinomeScan kinase panel [13]; kinase PLK3, 10 µM) [%]
			CCN1CCN(Cc2ccc(NC(=O)c3ccc(C)c(NC(=O)c4cncc(-c5cccs5)c4)c3)cc2C(F)(F)F)CC1 [ALW-II-41-27]	> 30	0.7	0.8	0.75	1.8	4.2	> 30	> 30	21	> 30	1.3	2.8	> 30				
1.8	28	23	CCN1CCN(Cc2ccc(NC(=O)c3ccc(C)c(/C=C/c4cnc5[nH]ccc5c4Cl)c3)cc2C(F)(F)F)CC1 [HG-6-63-01, (E)-3-(2-(4-chloro-1H-pyrrolo[2,3-b]pyridin-5-yl)vinyl)-N-(4-((4-ethylpiperazin-1-yl)methyl)-3-(trifluoromethyl)phenyl)-4-methylbenzamide]	24	0	0.55	0.3	1.2		> 30		26	> 30	0.7		> 30				
			CCN1CCN(Cc2ccc(NC(=O)c3ccc(C)c(C#Cc4cccnc4)c3)cc2C(F)(F)F)CC1 [XMD15-44]	> 30		0.75	2	0.05	13	58	81	23		1.8	0		2.8	2.6	100	90
